Experimental data reported in ChEMBL document CHEMBL4308841, “Synthesis, in vitro antiproliferative activity, and kinase inhibitory effects of pyrazole-containing diarylureas and diarylamides” (Eur J Med Chem, 2018).

What was measured:
BT-549 [1] = experiment: Growth inhibition of human BT549 cells incubated for 48 hrs by sulforhodamine B assay; assay type: functional, cell-based; conditions: BT-549, 48 h
HL-60(TB) [2] = experiment: Growth inhibition of human HL-60(TB) cells assessed as cell growth at 0.01 uM incubated for 48 hrs by sulforhodamine B assay relative to control; assay type: functional; conditions: HL-60, 48 h, read-out: Activity
NCI-H322M = experiment: Growth inhibition of human NCI-H322M cells assessed as cell growth at 0.01 uM incubated for 48 hrs by sulforhodamine B assay relative to control; assay type: functional; conditions: read-out: Activity
SNB-19 = experiment: Growth inhibition of human SNB19 cells assessed as cell growth at 100 uM incubated for 48 hrs by sulforhodamine B assay relative to control; assay type: functional; conditions: SNB-19, 48 h, read-out: Activity
CAKI-1 = experiment: Growth inhibition of human Caki1 cells incubated for 48 hrs by sulforhodamine B assay; assay type: functional, cell-based; conditions: CAKI-1, 48 h
HL-60(TB) [3] = experiment: Growth inhibition of human HL-60(TB) cells assessed as cell growth at 100 uM incubated for 48 hrs by sulforhodamine B assay relative to control; assay type: functional; conditions: HL-60, 48 h, read-out: Activity
MDA-MB-435 = experiment: Growth inhibition of human MDA-MB-435 cells assessed as cell growth at 1 uM incubated for 48 hrs by sulforhodamine B assay relative to control; assay type: functional; conditions: MDA-MB-435, 48 h, read-out: Activity
HL-60(TB) [4] = experiment: Growth inhibition of human HL-60(TB) cells incubated for 48 hrs by sulforhodamine B assay; assay type: functional, cell-based; conditions: HL-60, 48 h
SF-295 = experiment: Growth inhibition of human SF295 cells assessed as cell growth at 1 uM incubated for 48 hrs by sulforhodamine B assay relative to control; assay type: functional; conditions: SF-295, 48 h, read-out: Activity
RXF 393 = experiment: Growth inhibition of human RXF393 cells assessed as cell growth at 1 uM incubated for 48 hrs by sulforhodamine B assay relative to control; assay type: functional; conditions: RXF 393, 48 h, read-out: Activity
HCC 2998 = experiment: Growth inhibition of human HCC2998 cells assessed as cell growth at 0.1 uM incubated for 48 hrs by sulforhodamine B assay relative to control; assay type: functional; conditions: HCC 2998, 48 h, read-out: Activity
BT-549 [5] = experiment: Growth inhibition of human BT549 cells assessed as cell growth at 0.01 uM incubated for 48 hrs by sulforhodamine B assay relative to control; assay type: functional; conditions: BT-549, 48 h, read-out: Activity
PC-3 = experiment: Growth inhibition of human PC3 cells assessed as cell growth at 100 uM incubated for 48 hrs by sulforhodamine B assay relative to control; assay type: functional; conditions: PC-3, 48 h, read-out: Activity
NCI-H226 = experiment: Growth inhibition of human NCI-H226 cells assessed as cell growth at 0.1 uM incubated for 48 hrs by sulforhodamine B assay relative to control; assay type: functional; conditions: NCI-H226, 48 h, read-out: Activity
786-0 [6] = experiment: Growth inhibition of human 786-0 cells assessed as cell growth at 0.01 uM incubated for 48 hrs by sulforhodamine B assay relative to control; assay type: functional; conditions: 786-0, 48 h, read-out: Activity
MDA-MB-231 [7] = experiment: Growth inhibition of human MDA-MB-231 cells incubated for 48 hrs by sulforhodamine B assay; assay type: functional, cell-based; conditions: MDA-MB-231, 48 h
MDA-MB-468 = experiment: Growth inhibition of human MDA-MB-468 cells assessed as cell growth at 0.1 uM incubated for 48 hrs by sulforhodamine B assay relative to control; assay type: functional; conditions: MDA-MB-468, 48 h, read-out: Activity
OVCAR-5 = experiment: Growth inhibition of human OVCAR5 cells incubated for 48 hrs by sulforhodamine B assay; assay type: functional, cell-based; conditions: OVCAR-5, 48 h
786-0 [8] = experiment: Growth inhibition of human 786-0 cells incubated for 48 hrs by sulforhodamine B assay; assay type: functional, cell-based; conditions: 786-0, 48 h
RPMI-8226 = experiment: Growth inhibition of human RPMI8226 cells assessed as cell growth at 0.1 uM incubated for 48 hrs by sulforhodamine B assay relative to control; assay type: functional; conditions: RPMI-8226, 48 h, read-out: Activity
SW-620 = experiment: Growth inhibition of human SW620 cells assessed as cell growth at 0.1 uM incubated for 48 hrs by sulforhodamine B assay relative to control; assay type: functional; conditions: SW-620, 48 h, read-out: Activity
ACHN = experiment: Growth inhibition of human ACHN cells assessed as cell growth at 0.01 uM incubated for 48 hrs by sulforhodamine B assay relative to control; assay type: functional; conditions: read-out: Activity
T47D = experiment: Growth inhibition of human T47D cells assessed as cell growth at 1 uM incubated for 48 hrs by sulforhodamine B assay relative to control; assay type: functional; conditions: read-out: Activity
SN12C = experiment: Growth inhibition of human SN12C cells incubated for 48 hrs by sulforhodamine B assay; assay type: functional, cell-based
OVCAR-4 = experiment: Growth inhibition of human OVCAR4 cells assessed as cell growth at 0.1 uM incubated for 48 hrs by sulforhodamine B assay relative to control; assay type: functional; conditions: OVCAR-4, 48 h, read-out: Activity
MDA-MB-231 [9] = experiment: Growth inhibition of human MDA-MB-231 cells assessed as cell growth at 100 uM incubated for 48 hrs by sulforhodamine B assay relative to control; assay type: functional; conditions: MDA-MB-231, 48 h, read-out: Activity
NCI-H460 = experiment: Growth inhibition of human NCI-H460 cells incubated for 48 hrs by sulforhodamine B assay; assay type: functional, cell-based; conditions: NCI-H460, 48 h
MCF7 = experiment: Growth inhibition of human MCF7 cells assessed as cell growth at 100 uM incubated for 48 hrs by sulforhodamine B assay relative to control; assay type: functional; conditions: MCF7, 48 h, read-out: Activity
[10] = read-out: pLC50 (the source's name) (converted)
[11] = read-out: LC50 (the source's name)

Compound COc1cc(Cl)cc(-c2nn(-c3cccc(NC(=O)Nc4cc(C(F)(F)F)cc(C(F)(F)F)c4)c3)cc2-c2ccncc2)c1 has an IC50 (BT-549 [1]) of 2220 nM, a GI50 (BT-549 [1]; read-out: GI50) of 2220 nM and a TGI (BT-549 [1]; read-out: TGI) of 7140 nM. It also gave a GI50 (BT-549 [1]; read-out: pGI50 (converted)) of 2820 nM, a CC50 (BT-549 [1]; [10]) of 61700 nM and a TGI (BT-549 [1]; read-out: pTGI (converted)) of 7080 nM. For the same compound, the growth at 0.01 µM (HL-60(TB) [2]) was 92%, the growth at 0.01 µM (NCI-H322M) was 100% and the growth at 100 µM (SNB-19) was -42%. It also gave an IC50 (CAKI-1) of 420 nM, a GI50 (CAKI-1; read-out: GI50) of 420 nM and a TGI (CAKI-1; read-out: TGI) of 4750 nM. The GI50 (CAKI-1; read-out: pGI50 (converted)) was 417 nM, the CC50 (CAKI-1; [10]) was 61700 nM and the TGI (CAKI-1; read-out: pTGI (converted)) was 4790 nM. The growth at 100 µM (HL-60(TB) [3]) was -8%, the growth at 1 µM (MDA-MB-435) was 22% and the IC50 (HL-60(TB) [4]) was 330 nM. The GI50 (HL-60(TB) [4]; read-out: GI50) was 370 nM, the LC50 (HL-60(TB) [4]; read-out: LC50) was over 100000 nM and the TGI (HL-60(TB) [4]; read-out: TGI) was 3240 nM. For the same compound, the GI50 (HL-60(TB) [4]; read-out: pGI50 (converted)) was 324 nM, the LC50 (HL-60(TB) [4]; read-out: pLC50 (converted)) was over 100000 nM and the TGI (HL-60(TB) [4]; read-out: pTGI (converted)) was 3240 nM. The growth at 1 µM (SF-295) was 12%, the growth at 1 µM (RXF 393) was 50% and the growth at 0.1 µM (HCC 2998) was 105%. For the same compound, the growth at 0.01 µM (BT-549 [5]) was 94%, the growth at 100 µM (PC-3) was -44% and the growth at 0.1 µM (NCI-H226) was 102%. The growth at 0.01 µM (786-0 [6]) was 96%, the IC50 (MDA-MB-231 [7]) was 460 nM and the GI50 (MDA-MB-231 [7]; read-out: GI50) was 456 nM. It also gave a TGI (MDA-MB-231 [7]; read-out: TGI) of 1860 nM, a GI50 (MDA-MB-231 [7]; read-out: pGI50 (converted)) of 457 nM and a CC50 (MDA-MB-231 [7]; [10]) of 5370 nM. The TGI (MDA-MB-231 [7]; read-out: pTGI (converted)) was 1860 nM, the growth at 0.1 µM (MDA-MB-468) was 89% and the IC50 (OVCAR-5) was 1460 nM. The GI50 (OVCAR-5; read-out: GI50) was 1460 nM, the CC50 (OVCAR-5; [11]) was over 100000 nM and the TGI (OVCAR-5; read-out: TGI) was 12800 nM. It also gave a GI50 (OVCAR-5; read-out: pGI50 (converted)) of 1450 nM, a CC50 (OVCAR-5; [10]) of over 100000 nM and a TGI (OVCAR-5; read-out: pTGI (converted)) of 12900 nM. For the same compound, the IC50 (786-0 [8]) was 570 nM, the GI50 (786-0 [8]; read-out: GI50) was 558 nM and the CC50 (786-0 [8]; [11]) was 63.1 nM. It also gave a TGI (786-0 [8]; read-out: TGI) of 2170 nM, a GI50 (786-0 [8]; read-out: pGI50 (converted)) of 562 nM and a CC50 (786-0 [8]; [10]) of 6310 nM. It also gave a TGI (786-0 [8]; read-out: pTGI (converted)) of 2190 nM, a growth at 0.1 µM (RPMI-8226) of 87% and a growth at 0.1 µM (SW-620) of 94%. For the same compound, the growth at 0.01 µM (ACHN) was 103%, the growth at 1 µM (T47D) was 15% and the IC50 (SN12C) was 390 nM. It also gave a GI50 (SN12C; read-out: GI50) of 356 nM, an LC50 (SN12C; read-out: LC50) of 29.5 nM and a TGI (SN12C; read-out: TGI) of 1980 nM. For the same compound, the GI50 (SN12C; read-out: pGI50 (converted)) was 389 nM, the LC50 (SN12C; read-out: pLC50 (converted)) was 29500 nM and the TGI (SN12C; read-out: pTGI (converted)) was 2000 nM. The growth at 0.1 µM (OVCAR-4) was 97%, the growth at 100 µM (MDA-MB-231 [9]) was -70% and the IC50 (NCI-H460) was 380 nM. For the same compound, the GI50 (NCI-H460; read-out: GI50) was 377 nM, the TGI (NCI-H460; read-out: TGI) was 1760 nM and the GI50 (NCI-H460; read-out: pGI50 (converted)) was 380 nM. For the same compound, the CC50 (NCI-H460; [10]) was 17400 nM, the TGI (NCI-H460; read-out: pTGI (converted)) was 1780 nM and the growth at 100 µM (MCF7) was -44%.
